What all share (experiment): Post-emergence efficacy of compounds of Formula (I) (B1), glasshouse
Holding throughout (assay type): in vivo

Experiment [1] deals with Ipomoea hederacea (IPOHE). Conditions: Application Rate 500 g/Ha, evaluated after 13 days; for pest or weed control at 500 g/ha: Ipomoea hederacea, post-emergence, 312 h, read-out: Control of IPOHE after post-emergence application (100=total damage to plant; 0=no damage to plant). The method, then: (§1) Seeds of a variety of test species were sown in standard Iaom-based soil in pots:— Ipomoea hederacea (IPOHE), Euphorbia heterophylla (EPHHL), Chenopodium album (CHEAL), Amaranthus palmeri (AMAPA), Lolium perenne (LOLPE), Digitaria sanguinalis (DIGSA), Eleusine indica (ELEIN), Echinochloa crus-galli (ECHCG), Setaria faberi (SETFA). After cultivation for 14 days (post-emergence) under controlled conditions in a glasshouse (at 24/16° C., day/night; 14 hours light; 65% humidity), the plants were sprayed with an aqueous spray solution derived from the dissolution of the technical active ingredient Formula (I) in a small amount of acetone and a special solvent and emulsifier mixture referred to as IF50 (11.12% Emulsogen EL360 TM+44.44% N-methylpyrrolidone+44.44% Dowanol DPM glycol ether), to create a 50 g/I solution which was then diluted to required concentration using 0.25% or 1% Empicol ESC70 (Sodium lauryl ether sulphate)+1% ammonium sulphate as diluent. The delivery of the aqueous spray solution was via a laboratory track sprayer which delivered the aqueous spray composition at a rate of 200 litres per hectare, using a flat fan nozzle (Teejet 11002VS) and an application volume of 200 litre/ha (at 2 bar).
(§2) The test plants were then grown in a glasshouse under controlled conditions (at 24/16° C., day/night; 14 hours light; 65% humidity) and watered twice daily. After 13 days the test was evaluated (100=total damage to plant; 0=no damage to plant).

The test system of experiment [2] is Chenopodium album (CHEAL). Conditions: Application Rate 500 g/Ha, evaluated after 13 days; for pest or weed control at 500 g/ha: Chenopodium album, post-emergence, 312 h, read-out: Control of CHEAL after post-emergence application (100=total damage to plant; 0=no damage to plant). How it is done: as §1, §2
Experiment [3] has as its system Euphorbia heterophylla (EPHHL). Conditions: Application Rate 500 g/Ha, evaluated after 13 days; for pest or weed control at 500 g/ha: Euphorbia heterophylla, post-emergence, 312 h, read-out: Control of EPHHL after post-emergence application (100=total damage to plant; 0=no damage to plant). The method, then: as §1, §2
The next experiment relates to Eleusine indica (ELEIN). To be noted: Application Rate 500 g/Ha, evaluated after 13 days; for pest or weed control at 500 g/ha: Eleusine indica, post-emergence, 312 h, read-out: Control of ELEIN after post-emergence application (100=total damage to plant; 0=no damage to plant). How it is done: as §1, §2
In experiment [4] the test system is Digitaria sanguinalis (DIGSA). Conditions: Application Rate 500 g/Ha, evaluated after 13 days; for pest or weed control at 500 g/ha: Digitaria sanguinalis, post-emergence, 312 h, read-out: Control of DIGSA after post-emergence application (100=total damage to plant; 0=no damage to plant). The method, then:
as §1, §2

For a further experiment, the system named is Lolium perenne (LOLPE). Conditions: Application Rate 500 g/Ha, evaluated after 13 days; for pest or weed control at 500 g/ha: Lolium perenne, post-emergence, 312 h, read-out: Control of LOLPE after post-emergence application (100=total damage to plant; 0=no damage to plant). The method, then:
as §1, §2

A further experiment deals with Setaria faberi (SETFA). Conditions: Application Rate 500 g/Ha, evaluated after 13 days; for pest or weed control at 500 g/ha: Setaria faberi, post-emergence, 312 h, read-out: Control of SETFA after post-emergence application (100=total damage to plant; 0=no damage to plant). The method, then: as §1, §2
Experiment [5] deals with Amaranthus palmeri (AMAPA). Conditions: Application Rate 500 g/Ha, evaluated after 13 days; for pest or weed control at 500 g/ha: Amaranthus palmeri, post-emergence, 312 h, read-out: Control of AMAPA after post-emergence application (100=total damage to plant; 0=no damage to plant). How it is done: as §1, §2
Experiment [6] concerns Echinochloa crus-galli (ECHCG). To be noted: Application Rate 500 g/Ha, evaluated after 13 days; for pest or weed control at 500 g/ha: Echinochloa crus-galli, post-emergence, 312 h, read-out: Control of ECHCG after post-emergence application (100=total damage to plant; 0=no damage to plant). The method, then:
as §1, §2

Consider `O=S(=O)([O-])CC[n+]1ccc(-c2ncccn2)cn1` [Compound 1.001, 2-(4-pyrimidin-2-ylpyridazin-1-ium-1-yl)ethanesulfonate], for which the pest or weed control at 500 g/ha in experiment [1] came to 100%; in experiment [2], 100%; in experiment [3] it was 100%; in the experiment with Eleusine indica (ELEIN), 100%; in experiment [4] it was 100%; in the experiment on Lolium perenne (LOLPE), 70%. The pest or weed control at 500 g/ha in the experiment with Setaria faberi (SETFA) turned out to be 100%; in experiment [5] it was 100%; in [6], 70%.

Regarding `O=S(=O)([O-])CC[n+]1ccc(-c2cccnn2)cn1` [Compound 1.002, 2-(4-pyridazin-3-ylpyridazin-1-ium-1-yl)ethanesulfonate], the “Control of IPOHE after post-emergence application (100=total damage to plant; 0=no damage to plant)” value in experiment [1] is 40. In addition, in [2], the “Control of CHEAL after post-emergence application (100=total damage to plant; 0=no damage to plant)” value worked out at 100. The “Control of EPHHL after post-emergence application (100=total damage to plant; 0=no damage to plant)” value in experiment [3] came to 100. Besides, the “Control of ELEIN after post-emergence application (100=total damage to plant; 0=no damage to plant)” value in the experiment on Eleusine indica (ELEIN) is reported as 100. In [4], the “Control of DIGSA after post-emergence application (100=total damage to plant; 0=no damage to plant)” value is reported as 100. Further, the “Control of LOLPE after post-emergence application (100=total damage to plant; 0=no damage to plant)” value in the experiment with Lolium perenne (LOLPE) stood at 100. Besides, in the experiment with Setaria faberi (SETFA), the “Control of SETFA after post-emergence application (100=total damage to plant; 0=no damage to plant)” value is listed as 90. Further, the “Control of AMAPA after post-emergence application (100=total damage to plant; 0=no damage to plant)” value in [5] worked out at 100. The “Control of ECHCG after post-emergence application (100=total damage to plant; 0=no damage to plant)” value in [6] turned out to be 100.

`O=S(=O)([O-])CCC[n+]1ccc(-c2ncccn2)cn1` [Compound 1.003, 3-(4-pyrimidin-2-ylpyridazin-1-ium-1-yl)propane-1-sulfonate]: the pest or weed control at 500 g/ha in [1] is 60%; in experiment [2], 100%; in experiment [3], 100%; in the experiment on Eleusine indica (ELEIN), 100%; in experiment [4], 100%; with Lolium perenne (LOLPE) it was 60%. Besides, the pest or weed control at 500 g/ha with Setaria faberi (SETFA) stood at 100%; in experiment [5] it was 100%; in experiment [6], 80%.

`Nc1ccnc(-c2cc[n+](CCS(=O)(=O)O)nc2)n1` [Compound 1.008]: the pest or weed control at 500 g/ha is 40% in experiment [1]; 100% in experiment [2]; 80% in [3]; 100% in the experiment on Eleusine indica (ELEIN); 100% in experiment [4]; 60% in the experiment with Lolium perenne (LOLPE). In addition, the pest or weed control at 500 g/ha (with Setaria faberi (SETFA); in experiment [6]) was 100% in each case.

With `Cc1cnc(-c2cc[n+](CCS(=O)(=O)[O-])nc2)nc1` [Compound 1.009], the pest or weed control at 500 g/ha in experiment [1] is 30%; in experiment [2], 100%; in [3], 70%; with Eleusine indica (ELEIN), 100%; in experiment [4], 100%; in the experiment on Lolium perenne (LOLPE), 80%. In addition, the pest or weed control at 500 g/ha (in the experiment on Setaria faberi (SETFA); in [6]) was 100% throughout.

Consider `O=C(O)CC[n+]1ccc(-c2ncccn2)cn1.[Cl-]` [Compound 1.010, 3-(4-pyrimidin-2-ylpyridazin-1-ium-1-yl)propanoic acid chloride], for which the “Control of IPOHE after post-emergence application (100=total damage to plant; 0=no damage to plant)” value in [1] is on record as 40. In addition, the pest or weed control at 500 g/ha (in [2]; in experiment [3]; in the experiment on Eleusine indica (ELEIN); in [4]; in the experiment on Setaria faberi (SETFA); in experiment [6]) was 100% in each case. In the experiment with Lolium perenne (LOLPE), the “Control of LOLPE after post-emergence application (100=total damage to plant; 0=no damage to plant)” value amounted to 90.

With `Cc1ccc(-c2cc[n+](CCS(=O)(=O)[O-])nc2)nn1` [Compound 1.014], the pest or weed control at 500 g/ha in experiment [2] came to 100%; in [3], 100%; in the experiment with Eleusine indica (ELEIN), 90%; in [4], 100%; in the experiment on Lolium perenne (LOLPE), 90%; in the experiment on Setaria faberi (SETFA), 100%. The figures for the pest or weed control at 500 g/ha in [5] and in experiment [6] were 100% and 80%, respectively.

`Cc1ccnc(-c2cc[n+](CCC(=O)[O-])nc2)n1` [Compound 1.015]: the pest or weed control at 500 g/ha in [1] worked out at 30%; in experiment [2], 100%; in experiment [3], 80%; in the experiment on Eleusine indica (ELEIN) it was 100%; in experiment [4] it was 100%; with Lolium perenne (LOLPE), 80%. Also, the pest or weed control at 500 g/ha (with Setaria faberi (SETFA); in experiment [6]) was 100% throughout.

Take `Nc1ccnc(-c2cc[n+](CCC(=O)O)nc2)n1` [Compound 1.016]: the pest or weed control at 500 g/ha in experiment [1] came out at 30%; in [2], 90%; in [3], 90%; in the experiment with Eleusine indica (ELEIN), 100%; in [4], 100%; in the experiment on Lolium perenne (LOLPE), 70%. Besides, the pest or weed control at 500 g/ha (with Setaria faberi (SETFA); in experiment [6]) was 100% each time.

Consider `Cc1cc(C)nc(-c2cc[n+](CCC(=O)[O-])nc2)n1` [Compound 1.017], for which the pest or weed control at 500 g/ha in experiment [1] is 50%; in [2] it was 100%; in experiment [3], 80%; with Eleusine indica (ELEIN), 100%; in [4], 100%; with Lolium perenne (LOLPE) it was 60%. For the same compound, the results for the pest or weed control at 500 g/ha (in the experiment on Setaria faberi (SETFA); in experiment [6]) were 100% and 70%, respectively.

Consider `COc1cc(-c2cc[n+](CCCS(=O)(=O)[O-])nc2)ncn1` [Compound 1.019], for which the pest or weed control at 500 g/ha in experiment [1] is 60%; in [2], 100%; in [3] it was 100%; in the experiment with Eleusine indica (ELEIN), 90%; in [4], 100%; in the experiment on Lolium perenne (LOLPE), 30%. Also, the pest or weed control at 500 g/ha with Setaria faberi (SETFA) came out at 100%; in experiment [6], 70%.

Turning to `O=C(O)CC[n+]1ccc(-c2ncccn2)cn1.O=C([O-])C(F)(F)F` [Compound 1.023, 3-(4-pyrimidin-2-ylpyridazin-1-ium-1-yl)propanoic acid 2,2,2-trifluoroacetate], in experiment [1], the “Control of IPOHE after post-emergence application (100=total damage to plant; 0=no damage to plant)” value is 30. Besides, the “Control of CHEAL after post-emergence application (100=total damage to plant; 0=no damage to plant)” value in experiment [2] was found to be 80. In addition, the “Control of EPHHL after post-emergence application (100=total damage to plant; 0=no damage to plant)” value in experiment [3] worked out at 100. The “Control of ELEIN after post-emergence application (100=total damage to plant; 0=no damage to plant)” value in the experiment on Eleusine indica (ELEIN) is 100. Moreover, the “Control of DIGSA after post-emergence application (100=total damage to plant; 0=no damage to plant)” value in experiment [4] is on record as 100. For the same compound, in the experiment with Setaria faberi (SETFA), the “Control of SETFA after post-emergence application (100=total damage to plant; 0=no damage to plant)” value came out at 100. Also, the “Control of AMAPA after post-emergence application (100=total damage to plant; 0=no damage to plant)” value in [5] turned out to be 100. For the same compound, in experiment [6], the “Control of ECHCG after post-emergence application (100=total damage to plant; 0=no damage to plant)” value was found to be 100.

The record behind these values is patent US20220095618A1, “HERBICIDAL COMPOSITIONS” (SYNGENTA CROP PROTECTION AG, priority 2019, published 2022).
